According to US20110318470A1, “Method For Improving Plant Health” (priority 2008, published 2011):

Test system: Wheat plants (Trificum aestivum cv. Monopol)
Test: Growth-promoting effect on wheat plants after foliar treatment
Format: in vivo
Conditions: for Shoot-DW / Shoot-FW: 750 l/ha, greenhouse, mean of six pots with ten plants; for Shoot-DW / Shoot-FW / Shoot-DW % of control / Shoot-FW % of control: harvest after 18 days; for Shoot-DW % of control / Shoot-FW % of control: control = 100.0; for plant health (higher yields and increased plant vigor based on fresh- and dry weights) / tillering: wheat, foliar treatment, 15 and 7.5 g ai/ha
Experimental: Wheat plants (Trificum aestivum cv. Monopol) were grown in soil with ten plants per pot (13 cm diameter) under greenhouse conditions. Plants at the 2nd leaf stage were sprayed with aqueous solutions of formulated compounds: • Compound 1=4-Fluoro-N-[2-(2-fluoro-benzoylamino)-1-methylcarbamoyl-ethyl]-2-trifluoromethyl-benzamide • Compound 2=4-Fluoro-N-[2-(3-fluoro-2-methyl-phenyl)-2-hydroxy-1-methylcarbamoyl-ethyl]-2-trifluoromethyl-benzamide The compounds were applied at two different dose rates (15 and 7.5 g ai/ha) and the spray volume was 750 l/ha. Six replicate pots with ten plants each were used per treatment. After 18 days plants were harvested and growth parameters were determined. The recorded parameters were fresh weight (FW) and dry weight (DW). Mean values of results, standard deviation (SD) and percentage to control were calculated.

[1] = 7.5 g ai/ha foliar spray at 2nd leaf stage
[2] = 15 g ai/ha foliar spray at 2nd leaf stage

| Compound | Shoot-DW [1] | Shoot-FW [1] | Shoot-DW % of control (7.5 g ai/ha foliar spray) | Shoot-FW % of control (7.5 g ai/ha foliar spray) | Shoot-DW [2] | Shoot-FW [2] | Shoot-DW % of control (15 g ai/ha foliar spray) | Shoot-FW % of control (15 g ai/ha foliar spray) | plant health (higher yields and increased plant vigor based on fresh- and dry weights) | tillering |
| --- | --- | --- | --- | --- | --- | --- | --- | --- | --- | --- |
| CNC(=O)C(NC(=O)c1ccc(F)cc1C(F)(F)F)C(O)c1cccc(F)c1C (centres unmarked) [Compound 2, 4-Fluoro-N-[2-(3-fluoro-2-methyl-phenyl)-2-hydroxy-1-methylcarbamoyl-ethyl]-2-trifluoromethyl-benzamide] | 3.9 g | 40.2 g | 138.6 % of control | 131.4 % of control | 3.9 g | 40.6 g | 138.2 % of control | 132.8 % of control | strongly increase the plant health | increase in tillering |
| CNC(=O)C(CNC(=O)c1ccccc1F)NC(=O)c1ccc(F)cc1C(F)(F)F (centres unmarked) [Compound 1, 4-Fluoro-N-[2-(2-fluoro-benzoylamino)-1-methylcarbamoyl-ethyl]-2-trifluoromethyl-benzamide] | 3.8 g | 40.6 g | 134.9 % of control | 132.7 % of control | 3.7 g | 38.8 g | 131.0 % of control | 126.9 % of control | strongly increase the plant health | increase in tillering |
